Our source for the CC50 and IC50 values is paper PMC10324454, “Novel pyrimidine Schiff bases and their selenium-containing nanoparticles as dual inhibitors of CDK1 and tubulin polymerase: design, synthesis, anti-proliferative evaluation, and molecular modelling” (Journal of Enzyme Inhibition and Medicinal Chemistry, 2023).

One data set is described as follows: in vitro. Set-up: MTT cytotoxicity assay, formazan absorbance, viability IC50. The conditions noted are these: african green monkey, vero cells; read-out: IC50 Vero. As for the experimental part: The cytotoxic activity of all synthesised compounds, both normal and nano-sized forms, was evaluated against three cancer cell lines, breast cancer (MCF-7), hepatocellular carcinoma (HepG-2), and non-small cell lung cancer (A549), while the normal Vero cell line was performed for the promising compounds 4, 6 and their nano-sized 4NPs, 6NPs, using the MTT assay according to the literature. The cell lines were obtained from ATCC (American Type Culture Collection). 5-Fluorouracil was used as a control. It is worth noting that freshly prepared nanoparticle-based compounds were used in each of the conducted experiments. The protocol of the MTT assay was illustrated in detail in the Supplementary File. S3 1.1. Biological activity 1.1.1. In vitro cytotoxicity assay The cytotoxic activity of all synthesized compounds, both normal and nano-sized forms, was evaluated against three cancer cell lines, breast cancer (MCF-7), hepatocellular carcinoma (HepG-2), and non-small cell lung cancer (A549), while the normal Vero cell line was performed for the promising compounds 4, 6 and their nano-sized 4NPs, 6NPs, using the MTT assay according to the literature. […] The cytotoxic activities of the examined compounds were quantified by inoculating a 96-well tissue culture plate with 1 X 10 5 cells / mL (100 uL/well) and incubating it at 37°C for 24 hours to develop a complete monolayer sheet. […]

In the next data set the test system is A549. In words: cells. Details: MTT cytotoxicity assay, formazan absorbance, viability IC50. Conditions: Homo sapiens. On the procedure:
(§1) The cytotoxic activity of all synthesised compounds, both normal and nano-sized forms, was evaluated against three cancer cell lines, breast cancer (MCF-7), hepatocellular carcinoma (HepG-2), and non-small cell lung cancer (A549), while the normal Vero cell line was performed for the promising compounds 4, 6 and their nano-sized 4NPs, 6NPs, using the MTT assay according to the literature. The cell lines were obtained from ATCC (American Type Culture Collection). 5-Fluorouracil was used as a control. It is worth noting that freshly prepared nanoparticle-based compounds were used in each of the conducted experiments. The protocol of the MTT assay was illustrated in detail in the Supplementary File. S3 1.1. Biological activity 1.1.1. In vitro cytotoxicity assay The cytotoxic activity of all synthesized compounds, both normal and nano-sized forms, was evaluated against three cancer cell lines, breast cancer (MCF-7), hepatocellular carcinoma (HepG-2), and non-small cell lung cancer (A549), while the normal Vero cell line was performed for the promising compounds 4, 6 and their nano-sized 4NPs, 6NPs, using the MTT assay according to the literature. The cell lines were obtained from ATCC (American Type Culture Collection). 5-Fluorouracil was used as a reference drug. The cytotoxic activities of the examined compounds were quantified by inoculating a 96-well tissue culture plate with 1 X 10 5 cells / mL (100 uL/well) and incubating it at 37°C for 24 hours to develop a complete monolayer sheet. After forming a confluent sheet of cells, the growth medium was decanted from 96-well microtiter plates, and the cell monolayer was washed twice with wash media. Two-fold dilutions of tested samples were made in RPMI medium with 2% serum (maintenance medium), and 0.1 mL of each dilution was tested in different wells, with three wells serving as controls and receiving only maintenance medium. Following that, the plate was incubated at 37°C and examined. Cells were investigated for any physical signs of toxicity, such as partial or complete monolayer loss, rounding, shrinkage, or cell granulation. MTT solution was prepared (5mg/ml in PBS) (BIO BASIC CANADA INC), and 20 uL MTT solution was added to each well. After 5 minutes on a shaking table at 150 rpm to thoroughly mix the MTT into the media, it was incubated (37 ° C, 5% CO2) for 4 hours to allow the MTT to be metabolized. Formazan (MTT metabolic product) was resuspended in 200 uL DMSO and shaken at 150 rpm for 5 minutes to t

Another data set relates to HepG-2. In words: cells. Details: MTT cytotoxicity assay, formazan absorbance, viability IC50. The conditions noted are these: Homo sapiens, HepG2. On the procedure:
as §1

A further data set concerns MCF-7. Put plainly: cells. Conditions: Homo sapiens, MCF7. Details: MTT cytotoxicity assay, formazan absorbance, viability IC50. As for the experimental part:
as §1

The target in data set [1] is T1, tubulin (tubulin polymerase, colchicine binding site).
T1 construct: with alpha/beta-tubulin heterodimer
Put plainly: colchicine-tubulin competition-binding assay. Conditions: read-out: Tubulin polymerase (CBS) (IC50 μM ± SD).

The next data set has as its target T2, CDK1 (Homo sapiens, UniProt P06493).
T2 construct: with cyclin B1
In words: in vitro CDK1/cyclin B1 kinase inhibition assay (kit). The data set is classed as biochemical. Conditions: read-out: CDK1 (IC50 μM ± SD).

T2 sequence (P06493 whole entry): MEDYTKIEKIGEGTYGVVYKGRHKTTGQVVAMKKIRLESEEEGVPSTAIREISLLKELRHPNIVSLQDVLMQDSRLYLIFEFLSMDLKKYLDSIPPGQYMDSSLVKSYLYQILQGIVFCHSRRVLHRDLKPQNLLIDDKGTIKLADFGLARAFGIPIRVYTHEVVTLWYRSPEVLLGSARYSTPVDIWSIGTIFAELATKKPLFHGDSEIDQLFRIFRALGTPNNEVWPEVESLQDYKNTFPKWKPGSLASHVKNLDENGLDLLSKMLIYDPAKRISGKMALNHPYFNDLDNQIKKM
T2 sequence (P14635 whole entry partner): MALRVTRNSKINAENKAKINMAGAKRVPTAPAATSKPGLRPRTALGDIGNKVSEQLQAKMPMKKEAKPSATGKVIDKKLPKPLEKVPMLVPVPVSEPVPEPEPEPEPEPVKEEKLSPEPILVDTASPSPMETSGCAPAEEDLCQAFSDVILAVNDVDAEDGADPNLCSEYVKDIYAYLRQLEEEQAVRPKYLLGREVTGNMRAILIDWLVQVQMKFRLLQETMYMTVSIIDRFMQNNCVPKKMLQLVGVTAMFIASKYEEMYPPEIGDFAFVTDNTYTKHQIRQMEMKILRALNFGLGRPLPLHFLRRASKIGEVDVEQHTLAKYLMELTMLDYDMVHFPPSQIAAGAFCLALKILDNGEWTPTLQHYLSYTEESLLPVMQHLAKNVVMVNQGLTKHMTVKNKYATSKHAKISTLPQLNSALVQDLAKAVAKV

As for `O=c1[nH]cc(F)c(=O)[nH]1` [5-FU, 5-fluorouracil], the CC50 in “in vitro” was 3040 nM. Also, the half-inhibitory concentration (IC50) was 760 nM with A549, 1360 nM in the data set on HepG-2 and 1820 nM in the data set on MCF-7.

For `CN(C)c1ccc(/C=N/c2c(N)n(C)c(=O)[nH]c2=O)cc1` [compound 4, (E)-6-amino-5-((4-(dimethylamino)benzylidene)amino)-1-methylpyrimidine-2,4(1H,3H)-dione], the IC50 in data set [1] was found to be 1.93 ± 0.119 µM; on CDK1 it was 2.18 ± 0.06 µM; in the data set on HepG-2, 1070 ± 30 nM.

`Cn1c(N)c(/N=C/c2ccc(O)cc2)c(=O)[nH]c1=O` [compound 5, (E)-6-amino-5-((4-hydroxybenzylidene)amino)-1-methylpyrimidine-2,4(1H,3H)-dione] displayed an IC50 in the data set on HepG-2 of 4070 ± 80 nM.

The molecule `CCn1c(N)c(/N=C/c2ccc(O)cc2)c(=O)[nH]c1=O` [compound 6, (E)-6-amino-1-ethyl-5-((4-hydroxybenzylidene)amino)pyrimidine-2,4(1H,3H)-dione] registered an IC50 in the data set on HepG-2 of 1970 ± 50 nM.

In the data set with HepG-2, `CCn1c(N)c(/N=C/c2ccc([N+](=O)[O-])cc2)c(=O)[nH]c1=O` [compound 7, (E)-6-amino-1-ethyl-5-((4-nitrobenzylidene)amino)pyrimidine-2,4(1H,3H)-dione] displayed a half-maximal inhibitory concentration (IC50) of 3380 ± 110 nM.

For `CCn1c(N)c(/N=C/c2ccccc2[N+](=O)[O-])c(=O)[nH]c1=O` [compound 8, (E)-6-amino-1-ethyl-5-((2-nitrobenzylidene)amino)pyrimidine-2,4(1H,3H)-dione], inhibition in the data set with HepG-2 was half-maximal at 2100 ± 90 nM (IC50).

In the data set on HepG-2, `CCn1c(N)c(/N=C/c2ccc(Br)cc2)c(=O)[nH]c1=O` [compound 9, (E)-6-amino-5-((4-bromobenzylidene)amino)-1-ethylpyrimidine-2,4(1H,3H)-dione] registered a half-inhibitory concentration (IC50) of 3470 ± 90 nM.

Usually IC50 stands for the concentration that gives 50% inhibition.
